From PubChem BioAssay AID248 (DTP/NCI, 2004)
“And” between values parts separate entries of the source, which are not always exact repeats. Equal values may be shown once. Toxic doses and inconclusive results are not listed.

Tested on: L1210 leukemia ip in BDF1 mice, survival T/C
Assay: NCI In Vivo Anticancer Drug Screen. Data for tumor model L1210 Leukemia (intraperitoneal) in B6D2F1 (BDF1) mice
Conditions: endpoint: mean survival time, higher = longer survival
Method in brief: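 Transplanted-tumor mice were given test agent; controls received vehicle only. Survival readings from the two groups were divided (treated over control).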

[1] = dose: 100.0 mg/kg/injection, schedule: Q01DX009 (ip), vehicle: Klucel (hydroxypropylcellulose) (HPC)
[2] = dose: 100.0 mg/kg/injection, schedule: Q04DX003 (ip), vehicle: Klucel (hydroxypropylcellulose) (HPC)
[3] = dose: 200.0 mg/kg/injection, schedule: Q01DX009 (ip), vehicle: Klucel (hydroxypropylcellulose) (HPC)
[4] = dose: 200.0 mg/kg/injection, schedule: Q04DX003 (ip), vehicle: Klucel (hydroxypropylcellulose) (HPC)
[5] = dose: 400.0 mg/kg/injection, schedule: Q01DX009 (ip), vehicle: Klucel (hydroxypropylcellulose) (HPC)
[6] = dose: 400.0 mg/kg/injection, schedule: Q04DX003 (ip), vehicle: Klucel (hydroxypropylcellulose) (HPC)
[7] = dose: 100.0 mg/kg/injection, schedule: Q01DX001 (ip), vehicle: carboxymethylcellulose (CMC)
[8] = dose: 200.0 mg/kg/injection, schedule: Q01DX001 (ip), vehicle: carboxymethylcellulose (CMC)
[9] = dose: 400.0 mg/kg/injection, schedule: Q01DX001 (ip), vehicle: carboxymethylcellulose (CMC)
[10] = dose: 6.25 mg/kg/injection, schedule: Q01DX009 (ip), vehicle: Klucel (hydroxypropylcellulose) (HPC)
[11] = dose: 25.0 mg/kg/injection, schedule: Q01DX009 (ip), vehicle: Klucel (hydroxypropylcellulose) (HPC)
[12] = dose: 50.0 mg/kg/injection, schedule: Q01DX009 (ip), vehicle: Klucel (hydroxypropylcellulose) (HPC)
[13] = dose: 50.0 mg/kg/injection, schedule: Q04DX003 (ip), vehicle: Klucel (hydroxypropylcellulose) (HPC)
[14] = dose: 100.0 mg/kg/injection, schedule: Q01DX001 (ip), vehicle: saline
[15] = dose: 200.0 mg/kg/injection, schedule: Q01DX001 (ip), vehicle: saline
[16] = dose: 400.0 mg/kg/injection, schedule: Q01DX001 (ip), vehicle: saline
[17] = dose: 100.0 mg/kg/injection, schedule: Q01DX009 (ip), vehicle: saline with Tween-80
[18] = dose: 200.0 mg/kg/injection, schedule: Q01DX009 (ip), vehicle: saline with Tween-80
[19] = dose: 400.0 mg/kg/injection, schedule: Q01DX009 (ip), vehicle: saline with Tween-80
[20] = dose: 100.0 mg/kg/injection, schedule: Q04DX003 (ip), vehicle: saline with Tween-80
[21] = dose: 200.0 mg/kg/injection, schedule: Q04DX003 (ip), vehicle: saline with Tween-80

CC1(C)OC2OC(C(O)c3cn(-c4ccccc4)nn3)C(O)C2O1 (stereo not drawn)
T/C (dose: 100.0 mg/kg/injection, schedule: Q04DX002 (ip), vehicle: saline with Tween-80): 97 % of control | T/C (dose: 200.0 mg/kg/injection, schedule: Q04DX002 (ip), vehicle: saline with Tween-80): 93 % of control | T/C (dose: 400.0 mg/kg/injection, schedule: Q04DX002 (ip), vehicle: saline with Tween-80): 110 % of control

NC(=O)OCC#CCN1CCCC1
T/C (dose: 5.0 mg/kg/injection, schedule: Q04DX003 (ip), vehicle: saline with Tween-80): 96 % of control | T/C (dose: 10.0 mg/kg/injection, schedule: Q04DX003 (ip), vehicle: saline with Tween-80): 98 % of control | T/C (dose: 20.0 mg/kg/injection, schedule: Q04DX003 (ip), vehicle: saline with Tween-80): 93 % of control

C(=N\Nc1ccccc1)/c1cccc[n+]1Cc1ccccc1
T/C (dose: 75.0 mg/kg/injection, schedule: Q01DX001 (ip), vehicle: other): 95 % of control | T/C (dose: 150.0 mg/kg/injection, schedule: Q01DX001 (ip), vehicle: other): 96 % of control

COC(=O)CCC(C)C1CCC2C3C(O)CC4CC(OC(C)=O)CCC4(C)C3CC(O)C12C (stereo not drawn)
T/C (dose: 50.0 mg/kg/injection, schedule: Q01DX009 (ip), vehicle: carboxymethylcellulose (CMC)): 102 % of control and 103 % of control | T/C (dose: 50.0 mg/kg/injection, schedule: Q04DX003 (ip), vehicle: carboxymethylcellulose (CMC)): 95 % of control | T/C (dose: 100.0 mg/kg/injection, schedule: Q01DX009 (ip), vehicle: carboxymethylcellulose (CMC)): 95 % of control and 98 % of control | T/C (dose: 100.0 mg/kg/injection, schedule: Q04DX002 (ip), vehicle: carboxymethylcellulose (CMC)): 96 % of control and 101 % of control | T/C (dose: 100.0 mg/kg/injection, schedule: Q04DX003 (ip), vehicle: carboxymethylcellulose (CMC)): 95 % of control | T/C (dose: 200.0 mg/kg/injection, schedule: Q01DX009 (ip), vehicle: carboxymethylcellulose (CMC)): 88 % of control and 92 % of control | T/C (dose: 200.0 mg/kg/injection, schedule: Q04DX002 (ip), vehicle: carboxymethylcellulose (CMC)): 96 % of control and 91 % of control | T/C (dose: 200.0 mg/kg/injection, schedule: Q04DX003 (ip), vehicle: carboxymethylcellulose (CMC)): 88 % of control | T/C (dose: 400.0 mg/kg/injection, schedule: Q04DX002 (ip), vehicle: carboxymethylcellulose (CMC)): 86 % of control and 91 % of control

Cc1cc(Cl)ccc1NC(=O)C(c1ccccc1)c1ccccc1
T/C [1]: 89 % of control | T/C [2]: 101 % of control | T/C [3]: 92 % of control | T/C [4]: 95 % of control | T/C [5]: 93 % of control | T/C [6]: 88 % of control

N/C(=N\N=C\c1cccc2ccccc12)N/N=C/c1cccc2ccccc12
T/C (dose: 15.0 mg/kg/injection, schedule: Q01DX Z (ip), vehicle: methylcellulose (MC)): 101 % of control | T/C (dose: 30.0 mg/kg/injection, schedule: Q01DX Z (ip), vehicle: methylcellulose (MC)): 89 % of control | T/C (dose: 60.0 mg/kg/injection, schedule: Q01DX Z (ip), vehicle: methylcellulose (MC)): 102 % of control | T/C (dose: 60.0 mg/kg/injection, schedule: Q01DX Z (oral), vehicle: methylcellulose (MC)): 87 % of control | T/C (dose: 120.0 mg/kg/injection, schedule: Q01DX Z (ip), vehicle: methylcellulose (MC)): 97 % of control | T/C (dose: 120.0 mg/kg/injection, schedule: Q01DX Z (oral), vehicle: methylcellulose (MC)): 110 % of control | T/C (dose: 180.0 mg/kg/injection, schedule: Q01DX Z (oral), vehicle: methylcellulose (MC)): 101 % of control | T/C (dose: 240.0 mg/kg/injection, schedule: Q01DX Z (ip), vehicle: methylcellulose (MC)): 97 % of control | T/C (dose: 240.0 mg/kg/injection, schedule: Q01DX Z (oral), vehicle: methylcellulose (MC)): 102 % of control | T/C (dose: 360.0 mg/kg/injection, schedule: Q01DX Z (ip), vehicle: methylcellulose (MC)): 91 % of control | T/C (dose: 360.0 mg/kg/injection, schedule: Q01DX Z (oral), vehicle: methylcellulose (MC)): 96 % of control | T/C (dose: 480.0 mg/kg/injection, schedule: Q01DX Z (oral), vehicle: methylcellulose (MC)): 93 % of control | T/C (dose: 540.0 mg/kg/injection, schedule: Q01DX Z (oral), vehicle: methylcellulose (MC)): 96 % of control

CCOC(=O)CN1CC(C)(C)N(CC(=O)OCC)CC1(C)C
T/C [7]: 93 % of control | T/C [8]: 93 % of control | T/C [9]: 104 % of control

COc1ccc(OC(=O)Nc2ccccc2Cl)cc1
T/C [1]: 94 % of control | T/C [2]: 95 % of control | T/C [3]: 103 % of control | T/C [4]: 104 % of control | T/C [5]: 103 % of control | T/C [6]: 101 % of control

Sc1cccc2c(S)cccc12
T/C (dose: 50.0 mg/kg/injection, schedule: Q01DX001 (ip), vehicle: carboxymethylcellulose (CMC)): 100 % of control | T/C [7]: 97 % of control | T/C [8]: 103 % of control | T/C [9]: 100 % of control

CC(=O)Nc1ccccc1SC(C)=O
T/C (dose: 100.0 mg/kg/injection, schedule: Q04DX003 (ip), vehicle: other): 88 % of control

Nc1nc(=S)c2[nH]c(N=Nc3ccc(S(=O)(=O)Nc4ccccn4)cc3)nc2[nH]1
T/C [10]: 170 % of control | T/C [11]: 112 % of control | T/C [12]: 100 % of control and 117 % of control and 124 % of control | T/C [13]: 106 % of control | T/C [14]: 98 % of control | T/C [1]: 101 % of control | T/C [2]: 117 % of control | T/C [15]: 104 % of control | T/C [3]: 100 % of control | T/C [16]: 104 % of control

O=C(OCC1OC(OC2(COC(=O)c3ccccc3)OC(COC(=O)c3ccccc3)C(OC(=O)c3ccccc3)C2OC(=O)c2ccccc2)C(OC(=O)c2ccccc2)C(OC(=O)c2ccccc2)C1OC(=O)c1ccccc1)c1ccccc1 (stereo not drawn)
T/C [17]: 95 % of control | T/C [18]: 92 % of control | T/C [19]: 92 % of control

COc1ccc(-c2cnc3c(N)nn(C)c3n2)cc1
T/C [17]: 109 % of control | T/C [20]: 92 % of control | T/C [18]: 101 % of control | T/C [21]: 100 % of control | T/C [19]: 109 % of control | T/C (dose: 400.0 mg/kg/injection, schedule: Q04DX003 (ip), vehicle: saline with Tween-80): 94 % of control

COc1ccc(C)cc1CCCO
T/C (dose: 50.0 mg/kg/injection, schedule: Q01DX001 (ip), vehicle: saline): 101 % of control | T/C [14]: 101 % of control | T/C [15]: 101 % of control | T/C [16]: 93 % of control

CCN(CC)C(=S)[S][Pb]([S]C(=S)N(CC)CC)([c]1ccccc1)[c]1ccccc1
T/C (dose: 100.0 mg/kg/injection, schedule: Q01DX001 (ip), vehicle: steriod suspending solution): 97 % of control | T/C (dose: 200.0 mg/kg/injection, schedule: Q01DX001 (ip), vehicle: steriod suspending solution): 98 % of control | T/C (dose: 400.0 mg/kg/injection, schedule: Q01DX001 (ip), vehicle: steriod suspending solution): 100 % of control

CC(=O)c1cc(C)c(C)s1
T/C (dose: 12.5 mg/kg/injection, schedule: Q01DX009 (ip), vehicle: saline with Tween-80): 107 % of control | T/C (dose: 25.0 mg/kg/injection, schedule: Q01DX009 (ip), vehicle: saline with Tween-80): 110 % of control | T/C (dose: 50.0 mg/kg/injection, schedule: Q01DX009 (ip), vehicle: saline with Tween-80): 100 % of control | T/C [20]: 90 % of control | T/C [18]: 86 % of control | T/C [21]: 96 % of control

Clc1ccc(Cl)c(-c2csc(Nc3cccnc3)n2)c1
T/C (dose: 100.0 mg/kg/injection, schedule: Q04DX003 (ip), vehicle: saline): 92 % of control | T/C (dose: 200.0 mg/kg/injection, schedule: Q04DX003 (ip), vehicle: saline): 94 % of control | T/C (dose: 400.0 mg/kg/injection, schedule: Q04DX003 (ip), vehicle: saline): 97 % of control

OC(CCN1CCCCC1)(c1ccccc1)C1CCCC1 (stereo not drawn)
T/C [10]: 114 % of control | T/C (dose: 12.5 mg/kg/injection, schedule: Q01DX009 (ip), vehicle: Klucel (hydroxypropylcellulose) (HPC)): 100 % of control | T/C [11]: 94 % of control | T/C (dose: 25.0 mg/kg/injection, schedule: Q04DX003 (ip), vehicle: Klucel (hydroxypropylcellulose) (HPC)): 100 % of control | T/C [12]: 97 % of control | T/C [13]: 96 % of control | T/C [1]: 97 % of control | T/C [2]: 96 % of control
